Measurements as given in US20120083471A1, “Novel Compounds, Pharmaceutical Compositions Containing Same, Methods of Use for Same, and Methods for Preparing Same” (priority 2008, published 2012).
“Also recorded” adds a separate entry of the source.

How the values were obtained:
[1] = target: T1, mtGPAT1 (Mus musculus, UniProt Q61586); experiment: In vitro mtGPAT inhibition: acylation of 14C-glycerol 3-phosphate with palmitoyl-CoA, scintillation counting; assay type: biochemical; details: Table 2, sulfonamides 15a-i and 17a-f; triplicate; read-out: IC50 (μM) ± SD, In Vitro Anti-mtGPAT1 Activity
T1 construct: from tissue; host or cells: mitochondrial preparation
T1 sequence (Q61586 1-827): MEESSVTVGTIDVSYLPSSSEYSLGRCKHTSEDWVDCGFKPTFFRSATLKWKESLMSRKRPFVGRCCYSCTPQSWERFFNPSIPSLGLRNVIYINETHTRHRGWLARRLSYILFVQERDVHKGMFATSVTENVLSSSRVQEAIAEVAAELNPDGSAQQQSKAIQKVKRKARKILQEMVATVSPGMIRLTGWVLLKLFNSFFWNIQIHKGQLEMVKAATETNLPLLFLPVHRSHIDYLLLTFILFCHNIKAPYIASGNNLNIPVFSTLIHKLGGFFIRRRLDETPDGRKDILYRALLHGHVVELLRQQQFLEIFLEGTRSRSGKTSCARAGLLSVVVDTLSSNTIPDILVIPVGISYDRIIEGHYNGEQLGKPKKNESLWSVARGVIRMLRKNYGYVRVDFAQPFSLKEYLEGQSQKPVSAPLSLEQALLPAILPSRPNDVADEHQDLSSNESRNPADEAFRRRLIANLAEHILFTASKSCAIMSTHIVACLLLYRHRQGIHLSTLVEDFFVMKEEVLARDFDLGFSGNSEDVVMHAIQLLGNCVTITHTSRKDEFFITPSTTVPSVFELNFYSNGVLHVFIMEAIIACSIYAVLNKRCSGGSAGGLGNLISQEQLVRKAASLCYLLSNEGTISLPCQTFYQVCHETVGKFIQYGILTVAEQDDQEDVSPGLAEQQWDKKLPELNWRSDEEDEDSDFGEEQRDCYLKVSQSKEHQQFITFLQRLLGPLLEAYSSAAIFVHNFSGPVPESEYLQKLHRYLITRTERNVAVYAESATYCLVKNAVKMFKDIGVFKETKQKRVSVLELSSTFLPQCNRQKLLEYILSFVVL
Description: The compounds produced as described above were evaluated for their ability to inhibit the acylation of glycerol-3-phosphate in vitro. The acylation reaction between ^14C-labelled glycerol-3-phosphate and palmitoyl-CoA, initiated by adding mtGPAT, was measured in the presence of varying concentrations of the inhibitor by scintillation counting as described in more detail below.
A mitochondrial preparation of glycerol 3-phosphate acyltransferase was added to the incubation mixture containing ^14C-labeled glycerol 3-phosphate, palmitoyl-CoA, and varying inhibitor concentrations to initiate the reaction. After ten min, the reaction was terminated by adding chloroform, methanol, and 1% perchloric acid. Five minutes later, more chloroform and perchloric acid were added, and the upper aqueous layer was removed. After washing three times with 1% perchloric acid, the organic layer was evaporated under nitrogen, and the amount of ^14C present was counted to determine the extent of reaction inhibition. Data points were recorded in triplicate, and IC50 values were calculated based on the amount of test inhibitor necessary to produce 50% of mtGPAT activity observed in the absence of inhibitor but in the presence of DMSO vehicle control.

[2] = system: lipogenic gene expression; experiment: Real-time RT-PCR gene expression in liver and white adipose tissue of 16 d treated DIO mice; assay type: in vivo, mouse
Description: Real-time RT-PCR. Hypothalamus, liver, and WAT of DIO and lean mice were harvested and immediately frozen in liquid nitrogen. Total RNA was isolated and real-time quantitative RT-PCR was performed as previously described (13). Gene-specific primer pairs were designed using Primer3 software (http://www-genome.wi.mit.edu/cgi-bin/primer/primer3_www.cgi/). The sequences of the primer pairs are listed in Supplemental Data Table 1.
To further explore the mechanism responsible for the reduction in adipose tissue mass, we used real-time RT-PCR to measure the expression of the following key lipogenic genes in white adipose tissue from vehicle control, pair-fed, and FSG67 treated DIO mice from the second indirect calorimetry trial (see FIG. 12c): fatty acid synthase (FAS), responsible for the de novo reductive synthesis of fatty acid 13, acetyl-CoA carboxylase 1 (ACC1), the cytoplasmic isoform of ACC expressed in lipogenic organs that synthesizes malonyl-CoA used as a substrate of FAS for fatty acid synthesis 14, peroxisome proliferator-activated receptor gamma (PPARγ) a key transcription factor for adipogenesis 15, lipid partitioning 16, and postprandial lipid storage 17, and GPAT. […] (FIG. 19). Thus, pharmacological GPAT inhibition not only increases fatty acid oxidation and reduces food intake, but up-regulates UCP2 in liver and white adipose tissue while down-regulating lipogenic gene expression in white adipose tissue, all of which should favor a selective decrease in adiposity. […]

[3] = vs control and pair-fed, listed as FSG67

Compound: CCCCCCCCCS(=O)(=O)Nc1ccccc1C(=O)O [Compound 15g, 2-(Nonylsulfonamido)benzoic acid]
- IC50 [1]: 8.1 µM
- GPAT expression in liver ([2]; listed as FSG67): unaffected
- L-CPT-1 expression in liver and WAT ([2]; listed as FSG67): unaffected; also recorded: not affected
- UCP2 expression in liver ([2]; vs control): increased
- ACC1 expression in white adipose tissue [2, 3]: substantial down-regulation; also recorded: down regulated
- FAS expression in white adipose tissue [2, 3]: substantial down-regulation; also recorded: down regulated
- GPAT expression in white adipose tissue [2, 3]: substantial down-regulation; also recorded: down regulated
- PPARγ expression in white adipose tissue [2, 3]: substantial down-regulation; also recorded: down regulated
- UCP2 expression in WAT ([2]; vs pair-fed): increased
- ACC1 expression in liver ([2]; vs pair-fed, listed as FSG67): significant reduction; also recorded: reduced
- FAS expression in liver ([2]; vs vehicle and pair-fed, listed as FSG67): significant reduction; also recorded: reduced
